# According to patent publication US20170065517A1, “COMPOSITIONS FOR […] AGENTS ACROSS THE ORAL MUCOSA AND METHODS OF USE THEREOF” (PARATEK PHARMACEUTICALS, INC., priority 2004, published 2017):
# Experiment: Zolpidem membrane assay (lipid-coated dodecane membrane between donor and acceptor cell)
# Format: in vitro ADME
# Conditions: zolpidem tartrate solutions
# Method: Topics Med. Chem., 1:277-351 (2001). This assay uses a lipid-coated membrane to predict lipid mucosal membrane penetration. The membrane apparatus consists of a dodecane membrane sandwiched between a donor and acceptor cell. The lipid-coated membrane is less porous then the mucous membrane of the oral cavity. Thus, the enhancement seen in the membrane assay is very likely to be magnified in vivo.
# Membrane assays were performed using zolpidem tartrate solutions at a pH of 5.8, 6.8, and 7.8. The alkaline pH values of 7.8 were adjusted using freshly prepared 0.01 M sodium bicarbonate/sodium carbonate buffer solution. The acidic pH of 5.8 was achieved using a 0.01 M acetate buffer solution (a mixture of sodium acetate and acetic acid). The neutral pH of 6.8 was achieved by adding 0.01 M acetate solution to the sodium bicarbonate/sodium carbonate buffer solution. Permeation through the membrane was measured by determining the concentration of zolpidem in the acceptor cell and is expressed as Pc (effective permeability in centimeters per second).
smiles,measurement,setting,value
Cc1ccc(-c2nc3ccc(C)cn3c2CC(=O)N(C)C)cc1 [zolpidem],increase of effective permeability (Pc),pH 7.8 relative to pH 5.8,129%
same,increase of effective permeability (Pc),pH 7.8 relative to pH 6.8,more than 53%
